Test results as given in patent publication US6251903A, “Alkyl, azido, alkoxy, and fluoro-substituted and fused quinoxalinediones and the use thereof as glycine receptor antagonist” (priority 2000, dated 2001).
Entries after “also recorded” stand apart in the source; their conditions may differ. Like-named read-outs stand apart in the source and are kept apart here.

How the values were obtained:
neurons = conditions: literature, cited from earlier work
[1] = test system: glycine binding site of the NMDA receptor; conditions: literature, cited from earlier work
[2] = test system: non-NMDA glutamate receptors; conditions: literature, cited from earlier work
animals = conditions: literature; cited from earlier work
[3] = literature, cited from earlier work
[4] = target: NMDA receptor glycine sites; assay: electrophysiological assay, cloned rat NMDA receptors expressed in Xenopus oocytes; format: cell-based; conditions: Table II; from electrophysiology using Xenopus oocytes
Description: (§1) The binding affinities of quinoxaline-2,3-diones at NMDA receptor glycine sites also were estimated by electrophysiological assays with either cloned rat NMDA receptors expressed in Xenopus oocytes, or non-NMDA receptors expressed in oocytes by whole rat brain poly(A)^+ RNA. […] For NMDA receptors Ki values were approximated by averaging values at three subtype combinations (NR1A/NR2A, NR1A/NR2B, and NR1A/NR2C).

glycine binding site = glycine binding site (Rattus norvegicus, UniProt P35439); assay: affinity for the glycine binding site / glycine/NMDA receptor (Ki; method not stated)
Description: as §1

mice [5] = assay: anticonvulsant activity in maximum electroshock seizure (MES) experiments in mice; format: in vivo, male Swiss/Webster mice
Procedure: The seizure stimulus parameters were: 50 mA, 60 Hz, rectangular pulse, width 0.8 msec, duration 200 msec. Tonic hind limb extension observed after application of the electrical stimulus was recorded as occurrence of seizure. The drug was applied i.v. as an aqueous Tris (Tromethamine) solution.

mice [6] = assay: formalin test for pain in Swiss Webster mice; format: in vivo, male Swiss Webster mice; conditions: i.p., early and late phases
Procedure: The effects of the glycine receptor antagonists of the present invention on chronic pain can be evaluated as follows. Male Swiss/Webster mice weighing 25-35 grams are housed five to a cage with free access to food and water and are maintained on a 12 hour light cycle (light onset at 0800h). The glycine receptor antagonist is dissolved in DMSO at a concentration of 140 and 5-40 mg/mL, respectively. DMSO is used as vehicle control. All drugs=are injected intraperitoneally (1 μl/g). […] Mice are observed in a plexiglass cylinder, 25 cm in diameter and 30 cm in height. The plantar surface of one hindpaw is injected subcutaneously with 20 μl of 5% formalin. The degree of pain is determined by measuring the amount of time the animal spends licking the formalin-injected paw during the following time intervals: 0-5' (early phase); 5'-10', 10'-15' and 15'-50' (late phase). To test whether the glycine/excitatory amino acid antagonists prevent chronic pain in the test animals, vehicle (DMSO) or drugs dissolved in vehicle at doses of 1 mg/kg to 40 mg/kg are injected intraperitoneally 30 minutes prior to the formalin injection. For each dose of drug or vehicle control at least six animals are used.
Briefly, after a 60 minute accommodation period in plexiglass jars, mice were weighed and injected intraperitoneally (i.p.) with NDMQX (1-20 mg/kg; N=6-10 mice/dose). Controls were injected with DMSO (1 mL/kg, i.p.). Thirty min later, mice were injected with formalin (20 μl of 5% solution) just under the skin of the right hind paw, transferred to the plexiglass jars, and immediately observed for licking or biting of the injected paw for 1 hr. The amount of time that each mouse spent licking the injected paw was measured at 0-5 min (early phase) and 15-50 min (late phase).
In the formalin test, following a 1 hr accommodation period, mice were injected i.p. with NMCQX (1.00-10.00 mg/kg, N=7-13 mice/dose) or NDMQX (0.5-20.00 mg/kg, N=8-9 mice/dose). Control mice were injected with Tris (0.5 M) or Bis-Tris (0.2 M), respectively. Mice were then injected with formalin. […] The amount of time that each mouse spent licking and/or biting the injected paw was recorded for 1 hr.

mice [7] = assay: MES test with i.p. NMCQX or NDMQX (Example 51); format: in vivo, Swiss Webster mice; conditions: NMCQX 1.25-7.50 mg/kg, NDMQX 5.00-15.00 mg/kg
Procedure: In the MES test, mice were injected i.p. with NMCQX (1.25-7.50 mg/kg) or NDMQX (5.00-15.00 mg/kg). Control mice were injected with Tris (0.05 M) or Arginine (0.1 M), respectively. Seizures were then induced by applying a rectangular pulse, 50 mA, 60 pulses/sec, 0.8 msec pulse width, and 0.2 sec train length, at the time of the drugs' peak effect.

rats = assay: rat model of permanent focal cerebral ischemia, continuous intravenous infusion; format: in vivo, male Sprague-Dawley rats
Procedure: Male Sprague-Dawley rats (290-320 g) were […] and maintained under anesthesia with ±2% of halothane. […] The common carotid arteries (CCA) were isolated, and a loose silk ligature Was placed around each CCA. A vertical skin incision was made between the left orbit and the auditory canal, posterior part of zygoma removed and small opening (2.0/2.5 mm) drilled dorsorostrally to the foramen ovale under constant saline irrigation. The dura was opened with a microsurgical hook and the brain gently retracted with a fine spatula to expose the bifurcation of the internal carotid artery and the middle cerebral artery. The ipsilateral CCA was ligated and the MCA coagulated from its origin to the olfactory tract Two hours after MCA occlusion, the clip from the contralateral CCA was removed.
NDMQX was dissolved in 0.1 M L-arginine and 5% glucose and infused as a slow 10 mg/kg i.v. bolus (immediately after MCA occlusion) followed by 7 mg/kg/h infusion for 22 hours.
Brains were sliced into 2 mm blocks and stained with tetrazolium red (2,3,5-triphenyl tetrazolium chloride). The areas of brain damage were assessed using an image analyzer (Image-1, Universal Imaging Corporation, PA) to determine the volume of cortical and subcortical infarction by integration of areas and the distance between each level.
For the drug administration, the NMCQX was dissolved in 0.05 Tris and 5% glucose. It was infused as a slow 2 mg/kg i.v. bolus (immediately after MCA occlusion) followed by 1.4 mg/kg/h infusion for 22 hours.

DBA-2 mice = assay: audiogenic seizure model in DBA-2 mice; format: in vivo; conditions: Mus musculus, ip, 0.5 h; i.p. injection
Description: The anticonvulsant activity of the glycine and excitatory amino acid antagonists can be assessed in the audiogenic seizure model in DBA-2 mice as follows. DBA-2 mice can be obtained from Jackson Laboratories, Bar Harbor, Maine. These mice at an age of <27 days develop a tonic seizure within 5-10 seconds and die when they are exposed to a sound of 14 kHz (sinus wave) at 110 dB (Lonsdale, D., Dev. Pharmacol. Ther. 4:28 (1982)). […] 21 day old DBA-2 mice are used for all experiments. Compounds are given intraperitoneally in either saline, DMSO, or polyethyleneglycol-400. Appropriate solvent controls are included in each experiment. Dose response curves are constructed by giving increasing doses of drug from 1 mg/kg to 100 mg/kg. Each dose group (or solvent control) consists of at least six animals.

mice [8] = assay: anticonvulsant activity in maximum electroshock seizure (MES) experiments in mice; format: in vivo, male Swiss/Webster mice; conditions: Mus musculus, ip; Table III; i.p. injection
PCP receptor = conditions: Wong et al. 1986; cited from earlier work
[9] = test system: dorsal horn nociceptive neurons; conditions: literature; cited from earlier work
[10] = listed as 6-cyano-7-nitroquinoxaline-2,3-dione
[11] = listed as 6,7-dinitroquinoxaline-2,3-dione

N#Cc1cc2nc(O)c(O)nc2cc1[N+](=O)[O-] [6-cyano-7-nitro-1,4-dihydroquinoxaline-2,3-dione]
neuroprotective efficacy (neurons): neuroprotective in vitro | glycine site antagonism or affinity (words) [1]: can antagonize the responses to L-glutamate by interacting with the glycine recognition sites; also recorded: inhibit [^3 H] glycine binding to the strychnine-insensitive glycine binding sites; also recorded: antagonizes NMDA receptor-mediated responses by a competitive interaction of the glycine binding site | glycine site antagonism or affinity (words) [1, 10]: glycine antagonists | antagonism at kainate / AMPA / non-NMDA receptors [2]: more potent antagonists of kainate than glycine | antagonism at kainate / AMPA / non-NMDA receptors [2, 10]: AMPA | antagonism at kainate / AMPA / non-NMDA receptors ([2]; listed as 7-cyano-6-nitro-1,4-dihydroquinoxaline-2,3-dione): potent non-NMDA glutamate receptor antagonists | in vivo activity (animals): antagonize responses mediated by NMDA-associated glycine recognition sites in vivo | penetration of the blood/brain barrier (words) [3]: incapable of crossing the blood/brain barrier after i.p. administration | penetration of the blood/brain barrier (words) ([3]; listed as CNQX): poor access to the central nervous system | penetration of the blood/brain barrier (words) ([3]; listed as cyano-7-nitro-1,4-dihydroquinoxaline-2,3-dione): poor access to the central nervous system

Cc1c(Cl)cc2[nH]c(=O)c(=O)[nH]c2c1[N+](=O)[O-] [NMCQX, 7-Chloro-6-methyl-5-nitro-1,4-dihydroquinoxaline-2,3-dione]
Ki [4]: 5 nM | Ki (glycine binding site): 5 nM | times better than 6,7-dichloro-5-nitro-1,4-dihydroquinoxaline-2,3-dione as anticonvulsant (mice [5]; MES ED50 ratio): 4-5 times | ED50 as an anticonvulsant in the MES experiment in mice (mice [5]; route not stated): 1 mg/kg | antinociceptive effect in the formalin test (mice [6]): dose-dependent antinociceptive effect in both phases | protection from electroshock seizures (mice [7]): dose-dependently protected mice from generalized clonic-tonic seizures | reduction in cortical infarct volume (rats; 2 mg/kg i.v. bolus then 1.4 mg/kg/h for 22 hours, p<0.05): 75% | neuroprotection (rats; rat focal ischemia): significant neuroprotection

O=c1[nH]c2c(F)c(F)c(F)c(F)c2[nH]c1=O [F F F F, 5,6,7,8-tetrafluoro-1,4-dihydroquinoxaline-2,3-dione]
Ki (glycine binding site; Table III, read-out: Ki): 2190 nM | ED50 (DBA-2 mice): 9 mg/kg | ED50 (mice [8]): 20 mg/kg

O=c1[nH]c2cc([N+](=O)[O-])c([N+](=O)[O-])cc2[nH]c1=O [6,7-dinitro-1,4-dihydroquinoxaline-2,3-dione]
neuroprotective efficacy (neurons): neuroprotective activity | neuroprotective efficacy (neurons; [11]): neuroprotective in vitro | glycine site antagonism or affinity (words) [1]: can antagonize the responses to L-glutamate by interacting with the glycine recognition sites; also recorded: inhibit [^3 H] glycine binding to the strychnine-insensitive glycine binding sites | glycine site antagonism or affinity (words) [1, 11]: glycine antagonists | antagonism at kainate / AMPA / non-NMDA receptors [2]: more potent antagonists of kainate than glycine; also recorded: potent non-NMDA glutamate receptor antagonists | antagonism at kainate / AMPA / non-NMDA receptors [2, 11]: AMPA | in vivo activity (animals): antagonize responses mediated by NMDA-associated glycine recognition sites in vivo | penetration of the blood/brain barrier (words) ([3]; listed as DNQX): poor access to the central nervous system

O=c1[nH]c2cc(F)c(F)c(Br)c2[nH]c1=O [Br F F H]
Ki (glycine binding site; Table III, read-out: Ki): 2300 nM | ED50 (DBA-2 mice): 30 mg/kg

C[C@]12N[C@H](Cc3ccccc31)c1ccccc12 [MK801]
Kd (PCP receptor): ~3 nM | neuroprotective efficacy (neurons): have neuroprotective efficacy both in vitro and in vivo

O=C(O)c1cc(O)c2ccc(Cl)cc2n1 [7-Cl-kynurenic acid]
glycine site antagonism or affinity (words) [1]: relatively high receptor binding affinity in vitro | blockade of "wind up" [9]: blocked the "wind up" phenomenon | penetration of the blood/brain barrier (words) [3]: cannot penetrate the blood/brain barrier
